Reference: US20090197948A1, “Skin External Preparation” (Shiseido Co., Ltd., priority 2006, published 2009)

Tested on: skin of the forearms of 10 panelists (stratum corneum)
Assay: Testing by Conductance Measurement (rate of skin conductance change)
Type: in vivo, human
Details: for conductance evaluation, 30 minutes / conductance evaluation, 60 minutes / conductance evaluation, 120 minutes: Table 1, 10% aqueous solution; for conductance evaluation, 30 minutes: 30 minutes after application; for conductance evaluation, 60 minutes: 60 minutes after application; for conductance evaluation, 120 minutes: 120 minutes after application
Experimental: “Testing by Conductance Measurement” The skin conductance was measured before the application and after 30 minutes, 60 minutes, and 120 minutes of the application on the forearms of 10 panelists. From the rate of change, the moisturizing effect was evaluated. The rate of change of the skin conductance is determined by the following equation (III), and the influences on the water-absorbing property and the moisture-retention ability of the stratum corneum can be investigated. If the rate of change is small, it can be estimated that there is an increase in the water content in the stratum corneum and that the moisturizing effect is high. Rate of conductance change=(conductance before application)/(conductance after application) Equation (III) The evaluation criteria for the “Testing by Conductance Measurement” are as follows. ⊚: Average of the rate of conductance change of 10 panelists: 0 or higher and lower than 0.1 ◯: Average of the rate of conductance change of 10 panelists: 0.1 or higher and lower than 0.2 Δ: Average of the rate of conductance change of 10 panelists: 0.2 or higher and lower than 0.5 X: Average of the rate of conductance change of 10 panelists: 0.5 or higher Initially, the present inventors evaluated the conductance, based on the above-described criteria, for respective 10% aqueous solutions of various moisturizers.

| SMILES | conductance evaluation, 30 minutes | conductance evaluation, 60 minutes | conductance evaluation, 120 minutes | Conductance measurement evaluation (Table 7, 5 % alone in ion exchanged water 95 %) |
| --- | --- | --- | --- | --- |
| CC(O)CCO (stereo not shown) [1,3-butylene glycol] | Δ (Average of the rate of conductance change of 10 panelists: 0.2 or higher and lower than 0.5) | Δ (Average of the rate of conductance change of 10 panelists: 0.2 or higher and lower than 0.5) | Δ (Average of the rate of conductance change of 10 panelists: 0.2 or higher and lower than 0.5) |  |
| OCC(O)CO [glycerin] | ⊚ (Average of the rate of conductance change of 10 panelists: 0 or higher and lower than 0.1) | ◯ (Average of the rate of conductance change of 10 panelists: 0.1 or higher and lower than 0.2) | ◯ (Average of the rate of conductance change of 10 panelists: 0.1 or higher and lower than 0.2) | Δ (Average of the rate of conductance change of 10 panelists: 0.2 or higher and lower than 0.5) |
